Experimental findings from patent US20080021026A1, “BENZOTHIOPHENE INHIBITORS OF RHO KINASE” (priority 2006, published 2008) are described below.

In general, IC50 refers to the concentration that inhibits the measured activity by half.

SMILES strings stand for the structures.

This assay deals with T1, recombinant N-terminal GST-tagged human Rho kinase 2 (ROCK2, amino acids 1-552) (Homo sapiens, UniProt O75116).
T1 construct: ROCK2, amino acids 1-552; purchased Invitrogen Inc. PV3759
T1 sequence (O75116 1-552): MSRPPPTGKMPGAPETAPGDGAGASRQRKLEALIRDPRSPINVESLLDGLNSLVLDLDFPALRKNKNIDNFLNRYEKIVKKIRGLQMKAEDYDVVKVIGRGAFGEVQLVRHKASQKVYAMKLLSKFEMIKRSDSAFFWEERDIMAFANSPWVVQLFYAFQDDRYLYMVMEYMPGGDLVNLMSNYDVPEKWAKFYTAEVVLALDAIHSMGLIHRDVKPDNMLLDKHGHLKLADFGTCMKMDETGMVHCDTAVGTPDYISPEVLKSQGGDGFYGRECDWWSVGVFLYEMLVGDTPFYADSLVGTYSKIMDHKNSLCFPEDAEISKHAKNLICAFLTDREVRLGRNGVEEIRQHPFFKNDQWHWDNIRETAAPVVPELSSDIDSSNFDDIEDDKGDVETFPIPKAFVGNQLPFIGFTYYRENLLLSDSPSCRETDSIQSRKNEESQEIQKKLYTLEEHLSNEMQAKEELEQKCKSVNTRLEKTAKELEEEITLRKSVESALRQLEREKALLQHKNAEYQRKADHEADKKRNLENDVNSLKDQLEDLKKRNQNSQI
Kind of assay: In vitro Rho kinase assay (luciferase-based ATP consumption), ROCK2. Format: biochemical. The following applies: recombinant GST-tagged human ROCK2, luciferase-based ATP consumption; read-out: ROCK2 IC50. The gist of the method: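 Luciferase-based luminescence of leftover ATP after 2 h at 30 °C, where inhibition raises signal, reports activity of GST-tagged ROCK2 (aa 1-552) at 0.82 μg/ml. Conditions: S6 peptide 100 μg/ml, […], pH 7.5 Tris buffer. Results given as percent of H-1152P control activity.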
For `Cc1c(-c2ccnc(N)n2)sc2ccc(C(=O)N3CCSCC3)cc12` [Example 479, Cc1c(sc2ccc(cc12)C(═O)N3CCSCC3)-c4ccnc(N)n4], the half-maximal inhibitory concentration (IC50) is < 5 µM.

Turning to `Cc1c(-c2ccnc(N)n2)sc2ccc(C(=O)N(CCO)CCO)cc12` [Example 480, Cc1c(sc2ccc(cc12)C(═O)N(CCO)CCO)-c3ccnc(N)n3], the IC50 was < 5 µM. The figure for `Cc1c(-c2ccnc(N)n2)sc2ccc(C(=O)N3CC(C)CC(C)C3)cc12` (stereo not shown) [Example 481, CC1CC(C)CN(C1)C(═O)c2ccc3sc(c(C)c3c2)-c4ccnc(N)n4] is < 5 µM.

Regarding `Cc1c(-c2ccnc(N)n2)sc2ccc(C(=O)N(C)C3CCCCC3)cc12` [Example 482, CN(C1CCCCC1)C(═O)c2ccc3sc(c(C)c3c2)-c4ccnc(N)n4], the half-maximal inhibitory concentration (IC50) is < 5 µM. The figure for `Cc1c(-c2ccnc(N)n2)sc2ccc(C(=O)N3C(C)CCCC3C)cc12` (stereo not shown) [Example 483, CC1CCCC(C)N1C(═O)c2ccc3sc(c(C)c3c2)-c4ccnc(N)n4] is > 5 µM; for `Cc1c(-c2ccnc(N)n2)sc2ccc(C(=O)N3CCC(N(C)C)C3)cc12` (stereo not shown) [Example 484, CN(C)C1CCN(C1)C(═O)c2ccc3sc(c(C)c3c2)-c4ccnc(N)n4] it is < 5 µM; for `Cc1c(-c2ccnc(N)n2)sc2ccc(C(=O)N3C[C@@H](C)N[C@@H](C)C3)cc12` [Example 485, C[C@@H]1CN(C[C@H](C)N1)C(═O)c2ccc3sc(c(C)c3c2)-c4ccnc(N)n4] it is < 5 µM. Regarding `Cc1c(-c2ccnc(N)n2)sc2ccc(C(=O)N3CCCC(CO)C3)cc12` (stereo not shown) [Example 486, Cc1c(sc2ccc(cc12)C(═O)N3CCCC(CO)C3)-c4ccnc(N)n4], the half-inhibitory concentration (IC50) is < 5 µM. As to `COC[C@@H]1CCCN1C(=O)c1ccc2sc(-c3ccnc(N)n3)c(C)c2c1` [Example 487, COC[C@@H]1CCCN1C(═O)c2ccc3sc(c(C)c3c2)-c4ccnc(N)n4], the half-maximal inhibitory concentration (IC50) was > 5 µM. The figure for `Cc1c(-c2ccnc(N)n2)sc2ccc(C(=O)N3CC(C)OC(C)C3)cc12` (stereo not shown) [Example 488, CC1CN(CC(C)O1)C(═O)c2ccc3sc(c(C)c3c2)-c4ccnc(N)n4] is < 5 µM.

On to `Cc1c(-c2ccnc(N)n2)sc2ccc(C(=O)N3CCCCC3CO)cc12` (stereo not shown) [Example 489, Cc1c(sc2ccc(cc12)C(═O)N3CCCCC3CO)-c4ccnc(N)n4], for which the IC50 is < 5 µM.

Regarding `CCN(CCCCO)C(=O)c1ccc2sc(-c3ccnc(N)n3)c(C)c2c1` [Example 490, CCN(CCCCO)C(═O)c1ccc2sc(c(C)c2c1)-c3ccnc(N)n3], the half-inhibitory concentration (IC50) is < 5 µM. To `Cc1c(-c2ccnc(N)n2)sc2ccc(C(=O)N3Cc4ccccc4C3)cc12` [Example 491, Cc1c(sc2ccc(cc12)C(═O)N3Cc4ccccc4C3)-c5ccnc(N)n5] belongs < 5 µM; to `Cc1c(-c2ccnc(N)n2)sc2ccc(C(=O)N(C)Cc3ccccc3)cc12` [Example 492, CN(Cc1ccccc1)C(═O)c2ccc3sc(c(C)c3c2)-c4ccnc(N)n4], < 5 µM; to `CCN(C(=O)c1ccc2sc(-c3ccnc(N)n3)c(C)c2c1)C1CCCCC1` [Example 493, CCN(C1CCCCC1)C(═O)c2ccc3sc(c(C)c3c2)-c4ccnc(N)n4], < 5 µM. In the case of `Cc1c(-c2ccnc(N)n2)sc2ccc(C(=O)N3CCC(C(N)=O)CC3)cc12` [Example 494, Cc1c(sc2ccc(cc12)C(═O)N3CCC(CC3)C(N)═O)-c4ccnc(N)n4], the IC50 was > 5 µM. To `CC(=O)N[C@H]1CCN(C(=O)c2ccc3sc(-c4ccnc(N)n4)c(C)c3c2)C1` [Example 495, CC(═O)N[C@H]1CCN(C1)C(═O)c2ccc3sc(c(C)c3c2)-c4ccnc(N)n4] belongs > 5 µM; to `Cc1c(-c2ccnc(N)n2)sc2ccc(C(=O)N3CCCC(C(N)=O)C3)cc12` (stereo not shown) [Example 496, Cc1c(sc2ccc(cc12)C(═O)N3CCCC(C3)C(N)═O)-c4ccnc(N)n4], < 5 µM; to `Cc1c(-c2ccnc(N)n2)sc2ccc(C(=O)N3CCCCC3CCO)cc12` (stereo not shown) [Example 497, Cc1c(sc2ccc(cc12)C(═O)N3CCCCC3CCO)-c4ccnc(N)n4], > 5 µM.
